Test system: corneal endothelial cells
Experiment: Post-thaw quality of pig corneal endothelium after ultra-fast cooling, with or without DMSO in DMEM
Type: cell-based
Conditions: pig corneal pieces cooled to -196 degrees C by liquid nitrogen blade jet, thawed under 37 degrees C water jet
Source text: Small samples excised from pig corneas were cooled from room temperature (ambient) to −196 degrees C. using an ultra-fast cooling system of the present invention that contains a single liquid nitrogen blade jet and two gas nitrogen blade jets. Pig corneas were processed and cut into approx. 0.5 cm×0.5 cm×0.5 cm pieces, and each piece maintains a full layer of endothelium, i.e., a single layer of corneal endothelial cells of approximately 10 microns in size, on one surface. The tissues are first placed in standard holding media, Dulbecco's Modified Eagle Media (DMEM), at 4 degrees C. A sample holder was made with a holding cavity of 0.5 cm in depth and with a 20 microns thick sheet of stainless steel as its cover sheet. […] The corneal endothelium of each tissue faced to the cover sheet and directly contacted its inner surface, to achieve maximum cooling rate possibly provided by the liquid nitrogen jet for the endothelium and prevent exposure of the cells to liquid nitrogen flows. […] The post-thaw quality of the corneal endothelia was evaluated by quantification of endothelial cell number based on differential interference contrast light microscopy. The cell health was assessed by using cell circularity as a surrogate marker using differential interference contrast light microscopy. […]

Question: How did the “post-thaw endothelial cell viability (cell count vs fresh tissue, FIG. 19D)” value (10% DMSO in DMEM) turn out when C[S+](C)[O-] [DMSO, dimethyl sulfoxide] was run?
Answer: comparable to readings of the fresh corneas

Question: And the “post-thaw endothelial cell viability (cell count vs fresh tissue, FIG. 19D)” value (20% DMSO in DMEM)?
Answer: impacted the cell viability due to toxicity

Source: patent US20210144990A1, “IMPROVED ULTRA-FAST COOLING SYSTEM AND METHODS OF USE” (priority 2018, published 2021)
